System: intestinal tight junction permeability
Experiment: Inflammatory mediated intestinal tight junction permeability

## CCCCC/C=C\C/C=C\C/C=C\CCCCC(=O)O [GLA, gamma linolenic acid]
  reduction of inflammatory mediated intestinal tight junction permeability: effectively reduce

Reference: patent US20090082249A1, “NUTRITIONAL SUPPLEMENT FOR A CATEGORY OF HIV PATIENTS” (N.V. Nutricia, priority 2005, published 2009)
